In general, inhibition refers to the share of the control response that was lost under treatment. By IC50 is commonly meant the point on the concentration scale where inhibition reaches its midpoint. What is called MIC is the lowest concentration found to suppress growth. By Ki is commonly meant the equilibrium dissociation constant of an inhibitor or competing ligand from its target.

The values that follow come from PMC5816626, “A multitarget approach to drug discovery inhibiting Mycobacterium tuberculosis PyrG and PanK” (Scientific Reports, 2018).

One data set has as its system M. tuberculosis H37Ra. The experiment in a line: microbe, parasite or virus in culture. It is filed as cell-based. To be noted: Mycobacterium tuberculosis, read-out: Growth inhibition at harvest (OD600).
The target of data set [1] is M. tuberculosis PanK wild type (Mycobacterium tuberculosis, UniProt P9WPA7). Nature of the data set: biochemical.
Sequence of M. tuberculosis PanK wild type (P9WPA7 whole entry): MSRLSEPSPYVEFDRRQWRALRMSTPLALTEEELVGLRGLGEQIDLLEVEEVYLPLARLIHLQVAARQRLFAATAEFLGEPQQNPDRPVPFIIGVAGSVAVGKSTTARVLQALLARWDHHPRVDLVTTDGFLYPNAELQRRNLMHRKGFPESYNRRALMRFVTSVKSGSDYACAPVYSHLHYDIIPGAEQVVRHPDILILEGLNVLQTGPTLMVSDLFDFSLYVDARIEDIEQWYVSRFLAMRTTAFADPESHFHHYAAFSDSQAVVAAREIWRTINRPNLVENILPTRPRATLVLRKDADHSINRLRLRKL
The test system of another data set is M. tuberculosis PyrG. Also noted: method as in PMID 26097035, PMID 28475832. The following applies: previously identified PyrG inhibitors; cited from earlier work.
The next data set deals with M. tuberculosis. Further details: method as in PMID 26097035, PMID 28475832. The following applies: known antitubercular activity; cited from earlier work.
For another data set, the system named is M. tuberculosis H37Rv. The experiment in a line: MIC against M. tuberculosis H37Rv (wild type). It is filed as cell-based. The following applies: Mycobacterium tuberculosis; strain H37Rv.
The subject of a further data set is human cell lines. Further details: method as in PMID 26097035. The following applies: cited from earlier work.
Another data set addresses M. tuberculosis PanK (Mycobacterium tuberculosis, UniProt P9WPA7). The experiment in a line: PanK activity during incubation with prodrug and EthA. It is filed as biochemical. To be noted: 8 hours of incubation with EthA and NADPH, compound 0.3 mM.

≈ marks a conversion by molar mass, not a printed value. Entries after “also recorded” stand apart in the source; their conditions may differ.

Sequence of M. tuberculosis PanK (P9WPA7 whole entry): as above

For `C[C@H]1COC2(CCN(c3nc(=O)c4cc(C(F)(F)F)cc([N+](=O)[O-])c4s3)CC2)O1` [BTZ043, reference compound], the inhibition at 0.2 µg/mL with M. tuberculosis H37Ra stood at 23%.

For the compound `O=C(CN1CCN(Cc2ccccc2)CC1)Nc1ccc([N+](=O)[O-])cc1C(=O)c1ccccc1` [CDD-823953, N-(2-benzoyl-4-nitrophenyl)-2-(4-benzylpiperazin-1-yl)acetamide], the IC50 in data set [1] is 250 µM; in the data set on M. tuberculosis PyrG it was 80 µM. Further, in the data set with M. tuberculosis, the MIC was 4.39 µM (≈ 2.01 µg/mL).

On to `COc1ccc(-c2nnc(SCC(=O)Nc3ccc([N+](=O)[O-])cc3)o2)cc1` [CDD-934506, 2-((5-(4-methoxyphenyl)-1,3,4-oxadiazol-2-yl)sulfanyl)-N-(4-nitrophenyl)acetamide], for which the IC50 in data set [1] turned out to be 40 µM. Moreover, in the data set with M. tuberculosis PyrG, the “PyrG IC50” value is “inactive; also recorded: n. i”. Moreover, in the data set on M. tuberculosis, the MIC was 0.87 µM (≈ 0.336 µg/mL).

Regarding `CCc1cc(C(N)=S)ccn1` [Ethionamide, reference compound], the MIC in the data set on M. tuberculosis H37Rv was 1 µg/mL (≈ 6.02 µM).

Regarding `c1ccc(-c2csc(Nc3nc4cc5c(cc4s3)OCO5)n2)nc1` [GSK735826A, N-(4-(pyridin-2-yl)thiazol-2-yl)-(1,3)dioxolo(4′,5′:4,5)benzo(1,2-d)thiazol-6-amine], the IC50 is 70 µM in data set [1] and 22 µM with M. tuberculosis PyrG. In addition, the affinity in data set [1] (competitive inhibitor towards the ATP binding site) corresponds to a Ki of 65.3 ± 4.33 µM. Further, the MIC in the data set with M. tuberculosis was 2.7 µM (≈ 0.957 µg/mL). Besides, in the data set on M. tuberculosis H37Ra, the inhibition at 0.2 µg/mL stood at 66%.

With `O=C(COc1cccc(F)c1)Nc1nc(-c2ccccn2)cs1` [GSK920684A, 2-(3-fluorophenoxy)-N-(4-(pyridin-2-yl)thiazol-2-yl)acetamide], the “PanK IC50” value in data set [1] is reported as “n. i”. Besides, the IC50 with M. tuberculosis PyrG is 22 µM. Moreover, in the data set with M. tuberculosis H37Ra, the inhibition at 0.2 µg/mL turned out to be 26%.

`O=C(Cc1ccc(F)cc1)Nc1nc(-c2ccccn2)cs1` [GSK1570606A, 2-(4-fluorophenyl)-N-(4-(pyridin-2-yl)thiazol-2-yl)acetamide]: the “PanK IC50” value in data set [1] is reported as “n. i”. Further, the IC50 in the data set on M. tuberculosis PyrG is 4.2 µM. Further, the MIC with M. tuberculosis is 9.3 µM (≈ 2.91 µg/mL). The inhibition at 0.2 µg/mL in the data set with M. tuberculosis H37Ra came to 37%.

Consider `O=C(CCc1ccccc1)NC(=S)Nc1ccc(N2CCCCC2)cc1` [compound 7904688, 3-phenyl-N-[(4-piperidin-1-ylphenyl)carbamothioyl]propanamide], for which, in the data set with M. tuberculosis H37Rv, the MIC was 0.5 µg/mL (≈ 1.36 µM). For the same compound, the “toxicity against human cell lines” value in the data set on human cell lines was “very low toxicity”. For the same compound, the “loss of PanK activity” value on M. tuberculosis PanK is given as “more than 90%”.

In the data set with M. tuberculosis H37Rv, `Cc1ccc(C(=O)Nc2ccc([N+](=O)[O-])cc2)s1` [compound 7947882, 5-methyl-N-(4-nitrophenyl)thiophene-2-carboxamide] yielded an MIC of 0.5 µg/mL (≈ 1.91 µM). Also, in the data set with human cell lines, the “toxicity against human cell lines” value is recorded as “very low toxicity”. In addition, at M. tuberculosis PanK, the “loss of PanK activity” value is given as “more than 90%”.

Regarding `CC1=CC=C(C(=O)Nc2ccc([N+](=O)[O-])cc2)S1(=O)=O` [compound 11426026], it took 1 µg/mL (≈ 3.4 µM) to inhibit growth against M. tuberculosis H37Rv (MIC). In addition, the inhibition at 0.2 µg/mL in the data set on M. tuberculosis H37Ra is 83%.
